Data: ChEMBL document CHEMBL1141141, “Novel, highly potent adenosine deaminase inhibitors containing the pyrazolo[3,4-d]pyrimidine ring system. Synthesis, structure-activity relationships, and molecular modeling studies” (J Med Chem, 2005)

Tests used:
Adenosine deaminase [1] = target: T1, Adenosine deaminase (Bos taurus, UniProt P56658); assay: Inhibitory constant against bovine spleen Adenosine deaminase at >10e-5; n.a.=not active; type: tissue-based
T1 sequence (P56658 whole entry): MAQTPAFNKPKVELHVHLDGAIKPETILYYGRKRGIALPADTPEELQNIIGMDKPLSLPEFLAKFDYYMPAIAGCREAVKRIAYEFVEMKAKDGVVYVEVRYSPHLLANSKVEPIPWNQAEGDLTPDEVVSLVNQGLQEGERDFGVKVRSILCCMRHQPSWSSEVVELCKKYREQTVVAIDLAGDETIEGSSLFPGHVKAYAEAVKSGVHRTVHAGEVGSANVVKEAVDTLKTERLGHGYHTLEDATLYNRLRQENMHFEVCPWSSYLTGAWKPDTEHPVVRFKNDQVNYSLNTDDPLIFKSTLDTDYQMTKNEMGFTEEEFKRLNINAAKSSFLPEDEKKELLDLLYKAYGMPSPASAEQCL

Adenosine deaminase [2] = target: T1, Adenosine deaminase

| Structure (SMILES) | Ki (Adenosine deaminase [1]) | Ki (Adenosine deaminase [2]) [nM] |
| --- | --- | --- |
| CCCCCCCCCCN1N=CC2C(N)=NC=NC21 (stereo not drawn) | Not Active |  |
| NC1=NC=NC2C1C=NN2CCO (stereo not drawn) |  | 4620 |
| CCCCCCCCCCCN1N=CC2C(N)=NC=NC21 (stereo not drawn) | Not Active |  |
| CCCCCCC(O)CN1N=CC2C(N)=NC=NC21 (stereo not drawn) | Not Active |  |
| CCCCCCCCCCCCN1N=CC2C(N)=NC=NC21 (stereo not drawn) | Not Active |  |
| CCCCCCC(O)Cn1cc2c(N)ncnc2n1 (stereo not drawn) |  | 1 |
| CCCCCCCCCCn1cc2c(NC(C)=O)ncnc2n1 | Not Active |  |
| CCCCCCC(C(C)O)N1N=CC2C(N)=NC=NC21 (stereo not drawn) |  | 66.1 |

The remaining lines, values ahead:

| Ki (Adenosine deaminase [1]) | Ki (Adenosine deaminase [2]) [nM] | Structure (SMILES) |
| --- | --- | --- |
|  | 0.28 | CCCCCCCCC(O)Cn1cc2c(N)ncnc2n1 (stereo not drawn) |
| Not Active |  | Nc1ncnc2nn(CCc3ccccc3)cc12 |
| Not Active |  | NC1=NC=NC2C1C=NN2Cc1ccccc1 (stereo not drawn) |
| Not Active |  | NC1=NC=NC2C1C=NN2CCc1ccccc1 (stereo not drawn) |
| Not Active |  | CCCCCCCCCCn1cc2c(N)nc(-c3ccccc3)nc2n1 |
| Not Active |  | CCCCCCCCCCCCn1cc2c(N)ncnc2n1 |
|  | 37.5 | CCCCCCCC[C@H](O)Cn1cc2c(N)ncnc2n1 |
| Not Active |  | Nc1ncnc2nn(Cc3ccccc3)cc12 |
|  | 0.053 | CCCCCCCC[C@@H](O)Cn1cc2c(N)ncnc2n1 |
| Not Active |  | CCCCCCn1cc2c(N)ncnc2n1 |
